Reference: patent US20040067593A1, “Electron paramagnetic resonance method for diagnosis of active nephritis” (priority 2000, published 2004)

Columns and labels:
Solubility of spin trap = type: physicochemical
[1] = Effect of sulphite on the EPR signal of the DBNBS radical cation (DBNBS reacted with plasma or urine); design: species or system human
Method: The characteristic spectrum of DBNBS-SO3^●− was a 9 line signal with an aN=1.32 mT and aH=0.06 mT (FIG. 8). This was obtained by reacting DBNBS with hydrogen peroxide and horseradish peroxidase. The addition of 10 mM sulphite to the reaction mixture caused the signal to increase by over 100 fold in intensity. The signal could also be obtained by reacting DBNBS with sulphite alone. However, when the DBNBS was reacted with the plasma of patients with renal failure and the urine from a normal individual, only the 3 line signal with an aN=1.32 mT was seen (FIGS. 7 & 9, respectively). The hydrogen hyperfine splitting seen in the spectrum of DBNBS-SO3^●− was absent. […] Therefore, we confirmed that DBNBS-SO3^●− and the DBNBS radical cation generated by renal patients' plasma or normal urine were completely different radicals.
Addition of sulphite to the mixture of DBNBS and plasma or urine decreased the signal height of the DBNBS radical cation. This could affect the determination of the oxidant in biological samples if there was sulphite contamination in the DBNBS preparation or endogenous sulphite in the biological sample itself. Therefore the dose response effect on addition of sulphite to the reaction mixture was investigated. […]

Row | SMILES | solubility compared with DBNBS (Solubility of spin trap) | reduction in the signal height of the DBNBS radical cation ([1]; 0.08 mM of sulphite in the reaction mixture) [%] | reduction in the signal height of the DBNBS radical cation ([1]; final concentration of 0.4 mM sulphite in the reaction mixture) [%]
1 | O=Nc1c(Cl)cc(S(=O)(=O)O)cc1Cl [DCNBS, 3,5-dichloro-4-nitrosobenzene sulphonate] | better solubility |  | 
2 | O=S([O-])[O-].[K+].[K+] [sulphite, dipotassium sulphite] |  | 1.4 | 6.1
